In patent publication US20240325370A1, “THERAPEUTIC REGIMENS OF A DEGRADER OF BRD9” (FOGHORN THERAPEUTICS INC., priority 2021, published 2024):
Where two headings read alike, the source gives them in different places.

Key:
BRD9 [1] = molecular target: T1, BRD9 (Homo sapiens, UniProt Q9H8M2); experiment: BRD9 degradation by western blot in synovial sarcoma cells (SYO-1, ASKA); assay type: cell-based; details: for DC50: read-out: Fitted DC50
T1 sequence (Q9H8M2 1-597): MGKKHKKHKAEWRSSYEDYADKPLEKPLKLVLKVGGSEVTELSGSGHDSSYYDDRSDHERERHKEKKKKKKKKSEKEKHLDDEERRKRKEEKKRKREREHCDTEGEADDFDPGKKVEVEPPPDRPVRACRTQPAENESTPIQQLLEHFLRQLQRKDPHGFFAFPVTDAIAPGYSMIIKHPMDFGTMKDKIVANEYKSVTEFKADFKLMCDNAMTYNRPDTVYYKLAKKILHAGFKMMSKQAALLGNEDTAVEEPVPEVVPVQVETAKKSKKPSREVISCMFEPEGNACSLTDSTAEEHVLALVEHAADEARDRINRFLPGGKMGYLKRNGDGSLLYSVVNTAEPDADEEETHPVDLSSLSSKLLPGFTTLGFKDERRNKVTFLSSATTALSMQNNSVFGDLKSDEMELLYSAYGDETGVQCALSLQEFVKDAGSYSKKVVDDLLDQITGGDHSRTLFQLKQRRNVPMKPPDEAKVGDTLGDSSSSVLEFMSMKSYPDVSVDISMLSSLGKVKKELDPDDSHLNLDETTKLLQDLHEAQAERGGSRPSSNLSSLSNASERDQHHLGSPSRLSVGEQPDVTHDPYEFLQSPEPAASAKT
Method: Method. Synovial sarcoma cells were plated in 6-well plate at […] cells/well and treated with serial concentrations of BRD9 degrader (10 nM top concentration, diluted 1:3) the next day for two time points at 37° C. Cells were then harvested, washed with cold PBS, and frozen in cell pellets at −80° C. Lysates were prepared by resuspending thawed pellets in 1×RIPA Lysis and Extraction buffer (Thermo Fisher, Cat #89900) with 1× Halt™ Protease and Phosphatase Inhibitor Cocktail, EDTA-free (Thermo Fisher, Cat #78441) and 1:1000 dilution Pierce™ Universal Nuclease for Cell Lysis 25ku (Thermo Fisher, Cat #88700). Lysates were incubated on ice for 10 minutes and then centrifuged in 4° C. at maximum speed (15,000 rpm) for 10 minutes. Samples were then analyzed for total protein using BCA protein quantification assay and diluted to 1 ug/μL with lysis buffer and 1× NuPAGE™ LDS Sample Buffer (4×) (Thermo Fisher, Cat #NP0007) and 1×DTT from 30× stock (Cell Signaling Technologies, Cat #14265S). Samples with 20-25 ug of total protein were loaded into 4-12% Bis-Tris Mini-Gel with 1×MES Running buffer and run at 150V for 45 minutes. Gels were transferred using Trans-Blot® Turbo™ Transfer System (semi-dry) at 25V for 10 minutes (High MW setting) on nitrocellulose blots. Blots were blocked in 5% milk in TBST for 1 hour and probed with BRD9 antibody (Bethyl Labs, Cat #A303-781A, 1:750 for SYO1, and Cell Signaling Technologies, Cat #71232S for ASKA) and beta-Actin antibody (Cell Signaling Technologies, Cat #3700, 1:2000) overnight at 4° C. The next day, blots were washed in TBST 3× and probed with 1:5000 IRDye® 680LT Goat anti-Rabbit IgG Secondary Antibody (LICOR, Cat #926-68021) and 1:10000 IRDye® 800CW Goat anti-Mouse IgG Secondary Antibody (LiCOR, Cat #926-32210) in LiCOR Odyssey® Blocking Buffer (TBS) for 1 hour at room temperature. Blots were washed in TBST 3× and scanned at […] wavelength using LiCOR Odyssey® CLx Imaging System. Western blot signal was quantified using same analyses program included in the same machine. BRD9 signal was quantified by normalizing to beta-actin signal and all samples were normalized to DMSO, set as 100% signal.

[2] = Interconversion between Enantiomer 1 and Enantiomer 2 in cell medium; assay type: physicochemical; details: Enantiomer 1 dosing, cell medium 37° C.; for Mean peak area ratio of Enantiomer 2 over Enantiomer 1 peak area ratio: 0.2 µM
Method: For the assessment of interconversion between Enantiomer 1 and Enantiomer 2 in cell medium, the following test was performed. […] At designated time point, aliquot (50 μL) was taken and processed by the addition of 150 μL of acetonitrile containing 0.1% formic acid and internal standard for LC/MS-MS analysis. Peak areas of both Enantiomer 1 and Enantiomer 2 were determined for each sample using a chiral specific analytical method.

BRD9 [3] = molecular target: T1, BRD9; experiment: Pharmacodynamic activity in SYO-1 xenograft model (tumor BRD9 western blot); assay type: in vivo, mice; set-up: from tissue; host or cells: SYO-1 xenograft tumours in BALB/c nude or NOD SCID mice; details: SYO-1 xenograft, BALB/c Nude mice; single dose i.v. (Table 6)
Method: Method. The SYO-1 tumor cells were maintained in vitro as adherent cells in Dulbecco's Modified Eagle Medium (DMEM) supplemented with 10% fetal bovine serum at 37° C. in an atmosphere of 5% CO2 in air. The cells growing in an exponential growth phase were harvested and counted for tumor inoculation. BALB/c Nude mice (Shanghai Lingchang biological science) were inoculated subcutaneously on the right flank with (5×10^6) in 0.1 mL of phosphate buffered saline (PBS). The treatment-(described in table 6)—was started on day 19 after tumor inoculation, when the average tumor size reached 499 mm^3.
Mice were treated with racemic D1, 1 mg/kg, i.p. for 4 weeks, mice were euthanized, and tumors collected 1, 4, 8, 24, 48 and 72-hour post last dose. Tumors were lysed with 1×RIPA lysis buffer (Boston BioProducts, BP-115D) with protease and phosphatase protein inhibitor (Roche Applied Science #04906837001 & 05892791001). Equal amount of lysate (30 ug) were loaded in 4-12% Bis-Tris Midi Protein Gels in 1×MOPS buffer; samples ran at 120 V for 120 min. Proteins was transferred to membrane (NC) with TransBlot at 250 mA for 150 minute, then membranes were blocked with Odyssey Blocking buffer for 1 hour at room temperature. Membranes were hybridized overnight in cold room with primary antibodies. Images acquired using Li-COR imaging system (Li-COR Biotechnology, Lincoln, Nebraska).
Further study. The other study examined a range of compound D1 dose levels (0.05, 0.25, 1 or 5 mg/kg) formulated in a vehicle of 20% SBECD for tumor BRD9 protein levels up to 144 hours post dose. […] BRD9 protein levels were still depleted by 83.4% and 73.2% at 120 hours (5 days) and 144 hours (6 days), respectively, after a single IV administration of 5 mg/kg of compound D1, which corresponds to ˜2.5 mg/kg of compound S-D1.

BRD9 [4] = molecular target: T1, BRD9; experiment: BRD9 degradation by western blot in synovial sarcoma cells (SYO-1, ASKA); assay type: cell-based; details: 30 minutes, up to 10 µM

DC50 (BRD9 [1]; ASKA, 0.5 h): > 10 nM
DC50 (BRD9 [1]; ASKA, 2 h): 0.38 nM
DC50 (BRD9 [1]; SYO-1, 1 h): 2.8 nM
DC50 (BRD9 [1]; SYO-1, 6 h): 0.066 nM
Mean peak area ratio of Enantiomer 2 over Enantiomer 1 peak area ratio ([2]; 0 h): 0.0
Mean peak area ratio of Enantiomer 2 over Enantiomer 1 peak area ratio ([2]; 0.5 h): 0.0
Mean peak area ratio of Enantiomer 2 over Enantiomer 1 peak area ratio ([2]; 2 h): 0.13
Mean peak area ratio of Enantiomer 2 over Enantiomer 1 peak area ratio ([2]; 6 h): 0.43
% Enantiomer 2 ([2]; 2 h): 12%
% Enantiomer 2 ([2]; 6 h): 30%
BRD9 degradation activity (BRD9 [4]): no discernable activity
SMILES: COc1cc(-c2cn(C)c(=O)c3cnc(N4CCC4)cc23)cc(OC)c1CN1CCC(CN2CCC3(CC2)CN(c2ccc4c(c2)C(=O)N([C@@H]2CCC(=O)NC2=O)C4)C3)CC1 (single isomer, unassigned) [Enantiomer 1]
potency in degradation of endogenous BRD9 protein (BRD9 [1]; two synovial sarcoma cell lines, early time point): largely inactive or with much reduced degradation potency
Pharmacodynamic activity: tumor BRD9 protein level by western blot (BRD9 [3]): inactive and did not degrade BRD9 protein
